Active and inactive are the calls of the source. No cut-off for these calls is given here.
How the values were obtained:
THP-1 = test: Cytotoxicity against human THP-1 cells assessed as reduction in cell viability by MTT assay; type: toxicity, cell-based
[1] = Induction of mouse RAW264.7 cell maturation assessed as change in CD86 positive cells incubated for 18 hrs in the presence of muramyl dipeptide by staining based flow cytometric analysis relative to control; type: functional
[2] = Induction of mouse RAW264.7 cell maturation assessed as fold increase in CD80 positive cells incubated for 18 hrs in the presence of muramyl dipeptide by staining based flow cytometric analysis relative to RC529-NH2; type: functional
[3] = Induction of mouse BMDC cell maturation assessed as change in CD86 positive cells incubated for 18 hrs in the presence of muramyl dipeptide by staining based flow cytometric analysis relative to control; type: functional
[4] = Induction of mouse BMDC cell maturation assessed as change in CD80 positive cells incubated for 18 hrs by staining based flow cytometric analysis relative to control; type: functional
[5] = Induction of mouse RAW264.7 cell maturation assessed as change in CD80 positive cells incubated for 18 hrs in the presence of muramyl dipeptide by staining based flow cytometric analysis relative to control; type: functional
[6] = Induction of mouse RAW264.7 cell maturation assessed as change in CD86 positive cells incubated for 18 hrs by staining based flow cytometric analysis relative to control; type: functional
[7] = Induction of mouse BMDC cell maturation assessed as change in CD86 positive cells incubated for 18 hrs by staining based flow cytometric analysis relative to control; type: functional
[8] = Induction of mouse RAW264.7 cell maturation assessed as fold increase in CD80 positive cells incubated for 18 hrs in the presence of muramyl dipeptide by staining based flow cytometric analysis relative to muramyl dipeptide; type: functional
[9] = Induction of mouse RAW264.7 cell maturation assessed as change in CD80 positive cells incubated for 18 hrs by staining based flow cytometric analysis relative to control; type: functional
[10] = Induction of mouse BMDC cell maturation assessed as change in CD80 positive cells incubated for 18 hrs in the presence of muramyl dipeptide by staining based flow cytometric analysis relative to control; type: functional
BMDC [11] = test: Immunostimulatory activity in C57BL/6 mouse BMDC cells assessed as increase in IL-6 level at 9.3 uM incubated for 20 hrs in presence of TAK242 inhibitor by ELISA; type: functional, cell-based
T-cell [12] = test: Immunostimulatory activity in mouse spleen T-lymphocytes assessed as fold increase in proportion of TNF-alpha and IFN-gamma double-positive secreting CD4+ cells and measured on day 42 in the presence of muramyl dipeptide by staining based flow cytometric analysis relative to RC529; type: functional; settings: time 42 day
Mus musculus [13] = test: Induction of innate immunity in BALB/c mouse assessed as fold increase in IL-6 level in serum at 16.12 ug, ip measured after 2 hrs in presence of muramyl dipeptide by ELISA relative to RC529; type: functional; settings: dose 16.12 µg
Mus musculus [14] = test: Induction of innate immunity in BALB/c mouse assessed as fold increase in IL-6 level in serum at 5.36 ug, ip measured after 2 hrs in presence of muramyl dipeptide by ELISA relative to muramyl dipeptide; type: functional; settings: dose 5.36 µg
Mus musculus [15] = organism: Mus musculus; test: Activation of adaptive immune response in ovalbumin immunized mouse model assessed as fold increase in IgG titers incubated for 1 hrs in presence of muramyl dipeptide and measured on day 42 relative to muramyl dipeptide; type: functional
[16] = Induction of mouse RAW264.7 cell maturation assessed as fold increase in CD80 positive cells incubated for 18 hrs in the presence of muramyl dipeptide by staining based flow cytometric analysis relative to RC529; type: functional
Mus musculus [17] = organism: Mus musculus; test: Activation of adaptive immune response in ovalbumin immunized mouse model assessed as fold increase in IgG titers incubated for 1 hrs in presence of muramyl dipeptide and measured on day 42 relative to RC529; type: functional
Mus musculus [18] = test: Induction of innate immunity in BALB/c mouse assessed as fold increase in IL-6 level in serum at 16.12 ug, ip in liposome formulation measured after 2 hrs by ELISA relative to RC529-NH2; type: functional; settings: dose 16.12 µg
T-cell [19] = test: Immunostimulatory activity in mouse spleen T-lymphocytes assessed as fold increase in proportion of TNF-alpha and IFN-gamma double-positive secreting CD4+ cells and measured on day 42 in the presence of muramyl dipeptide by staining based flow cytometric analysis relative to muramyl dipeptide; type: functional; settings: time 42 day
BMDC [20] = test: Immunostimulatory activity in C57BL/6 mouse BMDC cells assessed as increase in IL-6 level at 9.3 uM incubated for 20 hrs in presence of GSK717 inhibitor by ELISA; type: functional, cell-based

SMILES	Activity (THP-1)	Activity [1]	Activity [3]	Activity [4]	Activity [5]	Activity [6]	Activity [7]	fold change (FC) [8]	Activity [9]	Activity [10]	Activity (BMDC [11])	further results
CN(CCc1nc2ccccc2n1CC(=O)Nc1ccc2c(c1)CCC2)C(=O)c1ccccc1	Non-toxic	–	–	–	–	–	–	–	–	–	–	–
CCCCCCCCCCCCCC(=O)O[C@H](CCCCCCCCCCC)CC(=O)NCCO[C@@H]1O[C@H](CN)[C@@H](OP(=O)(O)O)[C@H](OC(=O)C[C@@H](CCCCCCCCCCC)OC(=O)CCCCCCCCCCCCC)[C@H]1NC(=O)C[C@@H](CCCCCCCCCCC)OC(=O)CCCCCCCCCCCCC	–	10.9%	14.4%	15.3%	16.2%	10.7%	12.9%	1.3	14.7%	22.8%	inactive	fold change (FC) [2]: 1.1
CCCCCCCCCCCCCC(=O)O[C@H](CCCCCCCCCCC)CC(=O)NCCO[C@@H]1O[C@H](CO)[C@@H](OP(=O)(O)O)[C@H](OC(=O)C[C@@H](CCCCCCCCCCC)OC(=O)CCCCCCCCCCCCC)[C@H]1NC(=O)C[C@@H](CCCCCCCCCCC)OC(=O)CCCCCCCCCCCCC.CCN(CC)CC	–	13.4%	14.6%	21.6%	28.7%	13.1%	14%	2.4	26.9%	24.1%	inactive	fold change (FC) (T-cell [12]): 1.2; fold change (FC) (Mus musculus [13]): 1.04; fold change (FC) (Mus musculus [14]): 17; fold change (FC) (Mus musculus [15]): 1.9; fold change (FC) [16]: 1.1; fold change (FC) (Mus musculus [17]): 1.1; fold change (FC) (Mus musculus [18]): 21; fold change (FC) (T-cell [19]): 1.2
CCOC(=O)C1=CCCC[C@H]1S(=O)(=O)Nc1ccc(F)cc1Cl [RESATORVID]	Non-toxic	–	–	–	–	–	–	–	–	–	–	–
CC(=O)N[C@@H]1[C@@H](O[C@H](C)C(=O)N[C@@H](C)C(=O)N[C@H](CCC(=O)O)C(N)=O)[C@H](O)[C@@H](CO)O[C@H]1O [MURAMYLDIPEPTIDE]	–	–	–	13.6%	–	10.8%	11.4%	–	12.2%	–	–	Activity (BMDC [20]): inactive

Reference: ChEMBL document CHEMBL6092137, “Synergistic immune augmentation enabled by covalently conjugating TLR4 and NOD2 agonists” (Eur J Med Chem, 2024)
